Test results: US6482805B2 (Parker Hughes Institute, priority 1998, dated 2002)
Where two headings read alike, the source gives them in different places.

How the values were obtained:
[1] = system: human sperm; assay: Sperm motility assay by CASA (Example 1); type: cell-based; conditions: for EC50: read-out: EC50, sperm motility
Experimental: All donor specimens were obtained after informed consent and in compliance with the guidelines of the Wayne Hughes Institute Institutional Review Board. Motile sperm (≧10×10^6/ml), were suspended in 0.5 ml of Biggers, Whitten, and Whittingam's medium (BWW) containing 25 mM HEPES (Irvine Scientific, Santa Ana, Calif.), and 0.3% bovine serum albumin (BSA; Fraction V, Sigma Chemical Co, St. Louis, Mo.) in the presence and absence of serial two-fold dilutions of test substance (300 μM to 4.6 μm) in 1% DMSO. The stock solutions of synthetic WHI compounds were prepared in DMSO (10 mg/ml) and diluted in DMSO to yield the desired concentrations. Corresponding volume of DMSO (1%) was added to control tubes. N-9 was diluted in BWW-0.3% BSA (pH 7.4) to yield the desired concentrations (4.6 to 300 μM). After 3 hours of incubation at 37° C., the percentage of motile sperm was evaluated by computer-assisted sperm analysis (CASA) as described [L. J. Burkman, Fertil. Steril. […] The percent motilities were compared with sham-treated control suspensions of motile sperm. […] Non-linear regression analyses were used to determine the EC50 values from the concentration effect curves using GraphPad PRISM software (San Diego, Calif.).
For evaluating sperm motion kinematics using CASA, 4 μl each of sperm suspension was loaded into two 20-μm Microcell chambers (Conception Technologies) that was placed onto a counting chamber at 37° C. At least 5-8 fields per chamber were scanned for analysis using a Hamilton Thorne Integrated Visual Optical System (IVOS), version 10 instrument (Hamilton Thorne Research Inc., Danvers, Mass.). Each field was recorded for 30 seconds. […] The performance of the analyzer was periodically checked using the play-back function. The attributes of sperm kinematic parameters evaluated included numbers of motile (MOT) and progressively (PRG) motile sperm; curvilinear velocity (VCL; a measure of the total distance traveled by a given sperm during the acquisition divided by the time elapsed); average path velocity (VAP; the spatially averaged path that eliminates the wobble of the sperm head), straight line velocity (VSL; the straight-line distance from beginning to end of track divided by time taken), beat cross frequency (BCF, frequency of sperm head crossing sperm average path), the amplitude of lateral head displacement (ALH; the mean width of sperm head oscillation) and the derivatives, straightness ([…]); linearity (LIN=100×VSL/VCL; departure of sperm track from a straight line). Data from each individual cell track were recorded and analyzed. At least 200 motile sperm were analyzed for each aliquot sampled.

[2] = system: sperm acrosome; assay: Sperm acrosome and membrane integrity by FITC-lectin staining, confocal, SEM and TEM (Example 4); type: cell-based, human; conditions: for sperm head topography by scanning electron microscopy: 100 μM WHI compounds or 10 μM Cal A23187, 3 hours; for acrosome status by confocal microscopy (FITC-lectin) / acrosome-intact sperm: 100 μM; for acrosome status by confocal microscopy (FITC-lectin) / sperm head membranes by transmission electron microscopy / acrosome-intact sperm: 3 hours; for acrosome-intact sperm: method counts percentages of sperm with intact acrosome
Experimental: The percentages of sperm with an intact acrosome were evaluated by fluorescence microscopy (Olympus BX-60) following fixation and ethanol permeabilization of the sperm pellets and subsequent staining with fluorescein (FITC)-conjugated Pisum sativum lectin (Sigma). In positive control sperm, the acrosome reaction was induced by incubating (3 hours at 37° C.) the sperm suspension with 10 μm calcium ionophore (Cal) A23187 (Sigma). […] The percentage of sperm positive for PI were determined by flow cytometry using a FACS Vantage flow cytometer (Becton Dickinson and Co., Mountain View, Calif.). The sperm in the swim-up fractions were identified by their characteristic forward and 90° angle light scattering properties [O. J. D'Cruz and G. G. Haas, Jr. Fertil. Steril. 58, 633 (1992)]. All analyses were done using the 488-nm excitation from an krypton/argon laser with a 635-nm band pass filter for PI emission. The percentage of sperm positive for PI staining were determined using cutoff signals for membrane-intact motile sperm.
Ethanol permeabilized and air-dried sperm smears were stained sequentially with the three fluorescent markers, FITC-Pisum sativum, TOTO-3 iodide, and Nile red, each marking a different target (acrosome, nucleus, and plasma membrane of permeabilized sperm respectively). Samples were examined under a BioRad MRC-1024 Laser Scanning Confocal Microscope (BioRad Laboratories, Hercules, Calif.) equipped with a krypton/argon mixed gas laser (excitation lines 488, 568, and 647 nm) and mounted on a Nikon Eclipse E800 series upright microscope. The fluorescence emission of fluorescein, TOTO-3 iodide, and Nile red from the acrosomal region, nucleus, and the plasma membrane of sperm after ethanol permeabilization were simultaneously detected using the 598/40 nm, 522 DF32, and 680 DF32 emission/filter respectively. Confocal images were obtained using a Nikon 60× (NA 1.35) objective lens and Kalman collection filter. Digitized images were processed with the Adobe Photoshop software (Adobe Systems, Mountain View, Calif.). Final images were printed using a Fujix Pictography 3000 (Fuji Photo Film Co., Tokyo, Japan) color printer.
High-resolution low-voltage scanning electron microscopy was utilized for topographical imaging of different membrane domains over the sperm head as described [M. H. Stoffel et al. Molecular. Reprod. Develop. 34, 175 (1993); S. L. Erlandsen et al. Scanning 11, 169 (1989)]. […] Washed sperm suspensions were placed on 0.1% poly-L-lysine-coated glass chips and allowed to adhere to the glass over a 60 minute incubation period on ice. The supernatants were decanted, and adherent cells were fixed in 1% paraformaldehyde and 1% glutaraldehyde in 0.14 M sodium cacodylate buffer for 3 hours. To preserve plasma membrane integrity, sperm were post-fixed in 1% osmium tetroxide (OSO4) containing 0.1% ruthenium red in 0.14 M cacodylate buffer for 1 hour at 4° C. All samples were dehydrated through an ascending ethanol series, critical point dried, and coated with approximately 2 nm of platinum using ion beam sputtering with argon (4 mA at 10 ke V; Ion Tech Ltd., Middlesex, England). All samples were examined in a Hitachi S-900 SEM at an accelerating voltage of 2 keV. Sperm were observed under low magnification (×2,000-5000) and representative sperm were photographed under intermediate magnification (×18,000-25,000). In each specimen evaluated, at least 200 sperm were scanned for the intactness of sperm acrosomal region.
For transmission electron microscopy, treated sperm were fixed in 3% glutaraldehyde in 5% sucrose in 0.2 M cacodylate buffer for 3 hours at room temperature. The samples were post-fixed in 1% OSO4, 5% sucrose and 0.1% ruthenium red for 2 hours at 4° C. The samples were dehydrated in ascending ethanol series, and embedded in Spurr's epoxy. Thin sections (90 nm) were prepared on a Reichert-Jung Ultracut E and stained with uranyl acetate and lead citrate.

[3] = 3 hours incubation at 37° C., CASA

Row | Compound | spermicidal activity, in words ([1]; compared with related derivatives) | EC50 [1, 3] | sperm head topography by scanning electron microscopy [2] | acrosome status by confocal microscopy (FITC-lectin) [2] | sperm head membranes by transmission electron microscopy [2] | acrosome-intact sperm [2] | EC50 ([1]; Homo sapiens, Sperm, 3 hours incubation at 37° C., CASA) | EC50 ([1]; Homo sapiens, Sperm, 3 h)
1 | 5-Bromo-6-methoxy-5,6-dihydro-3′-azidothymidine 5′-[Phenyl methoxyalaninyl phosphate] [WHI-04] | improved spermicidal activity over WHI-01 |  |  |  |  |  |  | 
2 | 5-Bromo-6-methoxy-5,6-dihydro-3′-azidothymidine-5′-[(p-Fluorophenyl methoxyalaninyl phosphate] [WHI-06] |  | 15 µM |  |  |  |  |  | 
3 | 5-bromo-6-methoxy-5,6-dihydro-3 ′-azidothymidine-5 ′-(p-methoxyphenyl) methoxyalaninyl phosphate [WHI-05] |  | 29 µM | intact acrosomes | uniform, bright green fluorescence | intactness of the plasma membrane, outer, and inner acrosomal membranes | 97.0±2.0 |  | 
4 | CCCCCCCCCc1ccc(OCCOCCOCCOCCOCCOCCOCCOCCOCCO)cc1 [Compound N-9, nonoxynol-9, reference compound] |  |  |  | only acrosome-reacted sperm |  |  | 81 µM | 
5 | COC(=O)C(C)NP(=O)(OCC1OC(N2C(=O)NC(=O)C(C)(Br)C2OC)CC1N=[N+]=[N-])Oc1ccc(Br)cc1 (centres unmarked) [WHI-07, 5-Bromo-6-methoxy-5,6-dihydro-3′-azidothymidine-5′-(p-Bromophenyl Methoxyalaninyl Phosphate)] |  |  | mild acrosomal membrane ruffling | uniform, bright green fluorescence | intactness of the plasma membrane, outer, and inner acrosomal membranes | 93.0±5.6 |  | 6 µM
